One compound from patent publication US20070004680A1, “Compositions and methods for modulating gated ion channels” (PainCeptor Pharma Corporation, priority 2004, published 2007) can be followed below.

One assay deals with Male Sprague-Dawley rats. Briefly: Formalin test (flinching behaviour). In kind it is in vivo, rat. To be noted: 10 mg/kg i.v. 10 min prior to formalin in the hind limb; compared with vehicle; n=8. As to the method:
Male Sprague-Dawley rats (body weight, 180-300 g) are housed together in groups of four animals under standard conditions with unrestricted access to food and water. Rats are housed in the room in which the testing procedure is performed to minimize any stress response to novel environmental cues. All experiments are conducted according to the ethical guidelines for investigations of experimental pain in conscious animals (Zimmerman, 1983).
Separate groups of rats are used for the different experiments such that each animal is used on one occasion only. All experiments for a given compound are performed using age matched animals in an attempt to avoid variability between experiments. Prior to initiation of the formalin test, 4 rats are habituated in separate testing cages for 15-20 min. […] On the basis of the response pattern, two distinct phases of nociceptive behavior are observed, characterized by flinching of the affected paw and scored (Blackburn-Munro et al., Eur J Pharmacol. 2002 Jun. 12;445(3):231-8). […]
All data is analysed using Sigmastat 2.03 statistical software (Jandel Scientific GmbH, Germany) and expressed as mean±S.E.M. Two Way Repeated Measures Analysis of Variance (Two Way RM ANOVA) is used to analyse formalin test data and where applicable, this is followed by post-hoc analysis using Bonferroni's t-test to allow comparisons between groups. […]

The target in the next assay is T1, ASIC1a (Homo sapiens, UniProt P78348).
T1 construct: host or cells: HEK293
T1 sequence (P78348 1-528): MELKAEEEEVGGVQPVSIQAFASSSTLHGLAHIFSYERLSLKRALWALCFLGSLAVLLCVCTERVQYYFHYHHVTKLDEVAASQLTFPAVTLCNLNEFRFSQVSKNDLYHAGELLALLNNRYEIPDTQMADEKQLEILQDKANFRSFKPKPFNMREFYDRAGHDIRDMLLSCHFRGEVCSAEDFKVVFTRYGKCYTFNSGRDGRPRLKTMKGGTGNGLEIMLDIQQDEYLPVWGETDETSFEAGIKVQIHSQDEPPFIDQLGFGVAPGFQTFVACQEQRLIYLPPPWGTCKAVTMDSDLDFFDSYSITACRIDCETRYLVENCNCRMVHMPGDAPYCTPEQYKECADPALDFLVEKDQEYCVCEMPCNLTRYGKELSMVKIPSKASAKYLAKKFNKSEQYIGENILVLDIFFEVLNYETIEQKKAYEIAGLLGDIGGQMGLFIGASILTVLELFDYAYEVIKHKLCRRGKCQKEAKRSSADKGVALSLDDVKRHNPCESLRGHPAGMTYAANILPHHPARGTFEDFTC
Briefly: FLIPR calcium assay (MES-induced calcium response), ASIC1a expressing HEK293 cells. It is filed as cell-based. To be noted: HEK cells. As to the method: ASIC1a expressing HEK293 cells are grown in culture medium (DMEM with 10% FBS), in polystyrene culture flasks ([…]) at 37° C. in a humidified atmosphere of 5% CO2. Confluency of cells should be 80-90% on day of plating. Cells are rinsed with 10 ml of PBS and cells are re-suspended by addition of culture medium and trituration with a 25 ml pipette.
The cells are seeded at a density of approximately 1×10^6 cells/ml (100 μl/well) in black-walled, clear bottom, 96-well plates pre-treated with 10 mg/l poly-D-lysin (75 μl/well for ≧30 min). Plated cells were allowed to proliferate for 24 h before loading with dye.
Fluo-4/AM (1 mg, Molecular Probes) is added 912 μl DMSO. The Fluo-4/AM stock solution (1 mM) is diluted with culture medium to a final concentration of 2 μM.
The culture medium is aspirated from the wells, and 50 μl of the Fluo-4/AM loading solution is added to each well. The cells are incubated at 37° C. for 30 min.
After the loading period, the loading solution is aspirated and the cells are washed twice with 100 μl modified FLIPR medium (145 mM NaCl, 5 mM KCl, 5 mM CaCl2, 1 mM MgCl2, 10 mM HEPES, pH 7.4) to remove extracellular dye. Following the second wash, 100 μl modified FLIPR medium is added to each well and the fluorescence is measured in FLIPR.
Temperature: Room temperature (20-22° C.)
First addition: 50 μl test solution at a rate of 30 μl/sec and a starting height of […]
Second addition: 50 μl MES solution (20 mM, 5 mM final concentration) at a rate of 35 μl/sec and a starting height of 150 μl.
Reading intervals: pre-incubation—10 sec×7 and 3 sec×3 antagonist phase—3 sec×17 and 10 sec×12
Addition plates (compound test plate and MES plate) are placed on the right and left positions in the FLIPR tray, respectively. Cell plates are placed in the middle position and the ASIC1a program is effectuated. FLIPR will then take the appropriate measurements in accordance with the interval settings above. Fluorescence obtained after stimulation is corrected for the mean basal fluorescence (in modified FLIPR medium). […]

`C=CC1CN2CCC1CC2[C@@H](OC(=O)CCC1CCCC1)c1ccnc2ccccc12` (stereo partly drawn) [Compound A]: the “flinching behaviour in Formalin test” value in the assay on Male Sprague-Dawley rats is “attenuated flinching behaviour”. Besides, the inhibition at 1 µM at ASIC1a (HEK293, at 1 μM, FLIPR) fell in the range of 30 to 45%. Further, the IC50 at ASIC1a (MES-induced calcium response, peak values) was in the range of 1000 to 4000 nM.
